Here are results for ten compounds from US20250084091A1, “INHIBITORS OF SARS-COV-2” (The Texas A&M University System, priority 2021, published 2025).

Series [1] has as its target SARS-CoV-2 main protease (Mpro) (Severe acute respiratory syndrome coronavirus 2, UniProt P0DTD1). The series can be described thus: biochemical. The settings on record: Table 2; read-out: Enzyme IC50.
Series [2] deals with SARS-CoV-2 (strain USA-WA1/2020). The series is described as follows: microbe, parasite or virus in culture. The class given is cell-based. The settings on record: Severe acute respiratory syndrome coronavirus 2; Table 2; SARS-CoV-2 infected HeLa-ACE2 cells; read-out: CoV-2 HeLa EC50.
Series [3] concerns HeLa-ACE2 cells. The series is described as follows: cells. The class given is cell-based. The settings on record: Table 2, total cell count in infected plates.
A short description of series [4]: Uninfected host cell cytotoxicity counter screen. The class given is cell-based. The settings on record: human. Put shortly:
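HeLa-ACE2 cells, uninfected, seeded at 400 cells/well with compounds and held 24 hours at 37° C., 5% CO2. Dead cells stained with Image-iT DEAD green, fixed in 4% paraformaldehyde, DAPI-counterstained and imaged. Data normalized to DMSO and 40 μM puromycin controls; concentration responses in triplicate.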
A general note: A counterscreen serves to expose hits that act by an unwanted route or on another target.

Series [5] concerns CoV-2 in Vero cells. The series can be described thus: CoV-2 Vero antiviral assay. The class given is cell-based, SARS-CoV-2. The settings on record: Severe acute respiratory syndrome coronavirus 2, Vero, read-out: CoV-2 Vero EC50/100.

In brackets after ≈: the same amount, converted by molar mass. Bounds are passed on as bounds.

A word on the IC50: it is the point on the concentration scale where inhibition reaches its midpoint. As a reminder, the CC50 is the concentration giving 50% cytotoxicity. A higher CC50 goes with lower toxicity to the cells. For the compound `Cc1cncc(C(=O)N2CCC(=C3c4ccccc4C=Cc4ccccc43)CC2)c1` [NZ-793, (5-methyl-3-pyridyl)-[4-(2-tricyclo[9.4.0.03,8]pentadeca-1(11),3(8),4,6,9,12,14-heptaenylidene)-1-piperidyl]methanone], the IC50 in series [1] was 120 nM. Besides, the EC50 in series [2] was determined as 527 nM; in series [3], 520 nM; in series [5] it was 5 µg/mL (≈ 12.7 µM). In addition, the CC50 at 24 h in series [4] worked out at 33100 nM.

Take `O=C(c1cncc(Br)c1)N1CCN(C(c2ccccc2)c2ccccc2)CC1` [AA-551, (4-benzhydrylpiperazin-1-yl)(5-bromopyridin-3-yl)methanone]: the IC50 in series [1] came out at 220 nM. Besides, the EC50 is 820 nM in series [2], > 9610 nM in series [3] and 2.5 µg/mL (≈ 5.73 µM) in series [5]. Besides, the cytotoxic concentration (CC50) at 24 h in series [4] was > 39800 nM.

As to `Cc1cncc(C(=O)N2CCC(C(c3ccccc3)c3ccccc3)CC2)c1` [NZ-786, 3-[4-(diphenylmethyl)piperidine-1-carbonyl]-5-methylpyridine], in series [1], the concentration for half-maximal inhibition (IC50) came to 170 nM. The values for the EC50 in series [2], in series [3] and in series [5] were 570 nM, > 9610 nM and 10 µg/mL (≈ 27 µM), respectively. In series [4], this compound displayed a half-maximal cytotoxic concentration (CC50) at 24 h of 28500 nM.

`Cc1cncc(C(=O)N2CCC(C(O)(c3ccccc3)c3ccccc3)CC2)c1` [NZ-782, [1-(5-methylpyridine-3-carbonyl)piperidin-4-yl]diphenylmethanol]: in series [1], the concentration for half-maximal inhibition (IC50) turned out to be 230 nM. Further, the EC50 in series [2] was 570 nM; in series [3], > 9610 nM; in series [5] it was 5 µg/mL (≈ 12.9 µM). In series [4], the CC50 at 24 h is > 39800 nM.

In the case of `Nc1cncc(C(=O)N2CCN(C3c4ccccc4CCc4ccccc43)CC2)c1` [ZS-342, (5-amino-3-pyridyl)-[4-(2-tricyclo[9.4.0.03,8]pentadeca-1(11),3(8),4,6,12,14-hexaenyl)piperazin-1-yl]methanone], the half-inhibitory concentration (IC50) in series [1] is 150 nM. Also, the EC50 in series [2] was found to be 406 nM; in series [3], 1180 nM; in series [5], 5 µg/mL (≈ 12.5 µM). Besides, in series [4], the CC50 at 24 h is > 39800 nM.

For the compound `Cc1cncc(C(=O)N2CCC(=C3c4ccccc4CSc4ccccc43)CC2)c1` [NZ-794, [4-(6H-benzo[c][1]benzothiepin-11-ylidene)-1-piperidyl]-(5-methyl-3-pyridyl)methanone], in series [1], the IC50 stood at 60 nM. For the same compound, the EC50 came out at 155 nM in series [2], 345 nM in series [3] and 2.5 µg/mL (≈ 6.06 µM) in series [5]. For the same compound, the CC50 at 24 h in series [4] stood at 39200 nM.

With `O=C(c1cncc(Br)c1)N1CCC(=C(c2ccccc2)c2ccccc2)CC1` [NZ-771, 3-bromo-5-[4-(diphenylmethylidene)piperidine-1-carbonyl]pyridine], in series [1], the concentration for half-maximal inhibition (IC50) stood at 250 nM. Moreover, the EC50 in series [2] is 940 nM; in series [3], > 9610 nM; in series [5] it was 20 µg/mL (≈ 46.2 µM). In addition, in series [4], the CC50 at 24 h was > 39800 nM.

For the compound `Cc1cncc(C(=O)N2CCN(C3c4ccccc4CCc4ccccc43)CC2)c1` [ZS-329, (5-methyl-3-pyridyl)-[4-(2-tricyclo[9.4.0.03,8]pentadeca-1(11),3(8),4,6,12,14-hexaenyl)piperazin-1-yl]methanone], the IC50 in series [1] was 89 nM. The results for the EC50 in series [2], in series [3] and in series [5] were 330 nM, > 9610 nM and 5 µg/mL (≈ 12.6 µM), respectively. The same compound gave a CC50 at 24 h in series [4] of 21300 nM.

`O=C(c1cncc(Br)c1)N1CCN(C2c3ccccc3COc3ccccc32)CC1` (centres unmarked) [NZ-776, (5-bromo-3-pyridyl)-[4-(6,11-dihydrobenzo[c][1]benzoxepin-11-yl)piperazin-1-yl]methanone]: the IC50 in series [1] turned out to be 140 nM. The EC50 is 480 nM in series [2], > 9610 nM in series [3] and 2.5 µg/mL (≈ 5.38 µM) in series [5]. The 50% cytotoxic concentration (CC50) at 24 h in series [4] was > 39800 nM.

Regarding `Cc1cncc(C(=O)N2CCC(=C3c4ccccc4CCc4ccccc43)CC2)c1` [ZS-336, (5-methyl-3-pyridyl)-[4-(2-tricyclo[9.4.0.03,8]pentadeca-1(11),3(8),4,6,12,14-hexaenylidene)-1-piperidyl]methanone], in series [1], the IC50 was 54 nM. The EC50 stood at 252 nM in series [2], 314 nM in series [3] and 2.5 µg/mL (≈ 6.34 µM) in series [5]. In series [4], this compound returned a cytotoxic concentration (CC50) at 24 h of 31500 nM.
